From US20040126338A1, “Process of converting trans-lutein into cis-lutein and the uses thereof” (priority 2002, published 2004)

What was measured:
[1] = Persistence of cis-isomers during heating or reflux, normal phase HPLC percent area; format: physicochemical
Experimental: (§1) The solvent solutions are refluxed in the following examples by placing the glass flask on a heating unit. A reflux column, which is cooled by non-recirculating cold water, is attached to the flask. The solution is then heated to the boiling point of the given liquid, except for propylene glycol, which boils at 187° C. The refluxing time varies slightly between solution samples. The refluxing times for each example are stated for each below. Samples are taken periodically to test the concentration of the cis-isomers, these are referred to as collected samples. Similarly, the oil solutions were heated in the following examples by placing the glass flask into a heated oil bath filled with mineral oil, which was stirred constantly, at 72° C.
Storing and centrifuging refers to the collected samples being placed into 12×75 mm glass culture tubes and wrapped with Parafilm® (Pechiney Plastic Packaging) and stored in a freezer until analysis. When prepped for analysis the collected samples are first warmed to room temperature and then the aliquot is centrifuged at 12,000 rpm for 5 minutes to remove trans-isomers crystals. The trans-isomer crystals are removed because the cis-isomers of lutein are known to be more soluble than the trans-isomers, which will allow them to remain in solution once formed. Next 1 ml of the centrifuged collected sample is placed into a High Performance Liquid Chromotography (HPLC) vial for analysis.
Analysis of the solutions formed from lutein and a liquid are analyzed using both normal phase HPLC and a spectophotometer. For the HPLC analysis, 1 ml of the collected sample of each solution is filtered through a 0.45 micron syringe filter into a HPLC sample vial. The sample is first dried using a nitrogen stream and then the remaining solids are dissolved in a 1 ml of a 65:35 hexane:ethylacetate mixture. […] In this way the percent area of the lutein cis-isomer peak is determined.

[2] = cited from earlier work
[3] = tested on: age-related macular degeneration; details: consumption of lutein and zeaxanthin; cited from earlier work
[4] = Room temperature saturation limit and solubility on heating of lutein dry cake in solvents; format: physicochemical; details: for Room temp. sataturation limit (%): room temperature
Experimental: The purpose of this preparation is to analyze the effect of heat on a solution of lutein in four solvents, hexane, ethanol, isopropanol, and acetone, to determine whether isomerization from trans-isomers of lutein to various cis-isomers occurs, and what concentration of each isomer is formed. The solutions were prepared using 100 ml of the above stated solvents to dissolve varying weights of lutein dry cake. Initial solubility limits ere tested by adding a small amount of dry cake and swirling the flask briefly. If the sample appeared saturated, it was centrifuged to verify that a pellet of undissolved material was formed. If the solution was not saturated, additional dry cake was added until saturation was reached. Once the approximate solubility at room temperature was determined for each solvent, excess dry cake was added for the increased solubility that occurs through heating and isomerization, in order to maintain saturation during the entire experiment.

[5] = Observed solubility of lutein dry cake in oils; format: physicochemical
Experimental: Using an analytical balance, the preparation of solution for the following examples for cis-isomerization includes placing weighed dry cake lutein into a flask and adding one of the above liquids to the flask to form the solution. The solution is first hand swirled and its solubility is observed. Following a baseline sample, which is taken at the 0 hour mark, the prepared lutein solution is placed on a heat source and refluxed for a period of time ranging between 0-120 hours.
The purpose of this preparation is to analyze the effect of heat on a solution of lutein in the above stated oils and determine whether isomerization from trans-lutein to various cis-isomers occurs, and the concentration of each isomer that is formed. The oils used in this example were corn oil, which was used as a control, corn mint oil, spearmint oil, peppermint oil, tea tree oil, and bay oil. […] The solutions were made by adding 20 ml of oil to the weighed lutein. The sample heated in an oil bath. A baseline 2 ml sample was taken and additional 2 ml samples taken at 1, 4, 8, 24, and 48 hours.
(§2) In this preparation a solution was made using 2 g of lutein dry cake and 20 ml of oil. The solution was heated in an oil bath. Samples (2 ml) were taken at 0, 1, 4, 6.5, 24, and 48 hours. As before, samples were analyzed qualitatively using normal phase HPLC and spectophotometer. However, quantitative analysis was also performed, by taking 1 ml of the HEAT (hexane, ethanol, acetone and toluene) solution previously prepared, diluting it to 25 ml in ethanol, and determining the absorbance on an UV-Vis absorption spectrophotometer. This type of analysis is often useful for quantitative measurements. All of the thyme oil samples required a 1:20 dilution of the ethanol solution before reading on the UV-Vis.
Samples containing 25% solutions were prepared using 2.5 g dry cake lutein and 10 ml of liquid. The liquid used in solution was from the group consisting of corn oil, diH2O, or Spectrum brand white thyme oil. The “dry” sample contained 2.5 g dry cake lutein and was preformed without the addition of any liquid. […]

[6] = Carotenoid content of lutein heated in oils at 72° C., UV-Vis absorbance at 446 nm; format: physicochemical
Experimental: as §1
as §2, with “Samples (2 ml) were taken at 0, 1, 4, 6.5, 24, and 48 hours.” left out

[7] = among carotenoids; cited from earlier work
prostate cancer = details: in vivo; cited from earlier work
[8] = Cis-isomer content of supernatants versus pellets of the isopropanol solution; format: physicochemical
Experimental: The purpose of this preparation was to analyze the effect of isopropanol in solution with lutein, and analyze the effect of adding water to the lutein/isopropanol solution. In this example a solution was prepared by adding 2.51 g of dry cake lutein (lot 082405-08) to 50 ml isopropanol to a flask. The prepared solution was swirled and refluxed at 81° C. for 8 hours.
Samples were taken at 0, 1, 4, 6, and 8 hours to follow the isomerization. At 8 hours the sample was transferred to a 150 ml Erlenmeyer flask and placed in a freezer to cool. When partially cooled, aliquots were taken for precipitation and samples were diluted to 2:1, 1:1, and 1:2 ratios of water:isopropanol. An additional sample was prepared which contained only isopropanol solution. The samples were vortexed and centrifuged. Supernatant and pellets were collected and stored in a 1.5 ml microfuge tube until analysis.

[9] = UV absorption spectra of cis-lutein and trans-lutein; format: physicochemical
Text: FIG. 5 is a graph of the trans-lutein spectrum.
FIG. 6 is a graph of the cis-lutein spectrum.

CC(C=CC=C(C)C=CC1=C(C)CC(O)CC1(C)C)=CC=CC=C(C)C=CC=C(C)C=CC1C(C)=CC(O)CC1(C)C (single isomer, unassigned) [13,13′ cis-isomer, 13,13′ cis-lutein]
stability for extended periods ([1]; Example 3 oils at 72° C., concentration declines after 24 hour sample): did not appear to be highly stable for extended periods | stability ([1]; Example 4 thyme oils at 72° C., 4-48 hours): appears to be stable

CC1=C[C@H](O)CC(C)(C)[C@H]1/C=C/C(C)=C/C=C/C(C)=C/C=C/C=C(C)/C=C/C=C(C)/C=C/C1=C(C)C[C@@H](O)CC1(C)C (single isomer, unassigned) [trans-isomers of lutein, trans-lutein]
stability in crystalline forms ([2]; crystalline forms): stable in crystalline forms

CC1=C(/C=C/C(C)=C/C=C/C(C)=C/C=C/C=C(C)/C=C/C=C(C)/C=C/C2=C(C)C[C@@H](O)CC2(C)C)C(C)(C)C[C@H](O)C1 [Zeaxanithin, zeaxanthin]
reduction in age-related macular degeneration [3]: 57%

CC1=C[C@H](O)CC(C)(C)[C@H]1/C=C/C(C)=C/C=C/C(C)=C/C=C/C=C(C)/C=C/C=C(C)/C=C/C1=C(C)C[C@@H](O)CC1(C)C [lutein dry cake, lutein]
Room temp. sataturation limit (%) ([4]; in acetone): ˜0.45% | Room temp. sataturation limit (%) ([4]; in ethanol): ˜0.3% | Room temp. sataturation limit (%) ([4]; in hexane): <1% | solubility when the solution was heated ([4]; in isopropanol, reflux): increased dramatically | Room temp. sataturation limit (%) ([4]; in isopropanol): ˜0.2% | solubility in corn oil compared with thyme oils ([5]; Example 4, 2 g dry cake in 20 ml oil): least soluble in corn oil | carotenoid concentration observed ([6]; thyme oil, predicted concentration 10%): 7.18%

CC1=C[C@H](O)CC(C)(C)[C@H]1/C=C/C(C)=C/C=C/C(C)=C/C=C/C=C(C)/C=C/C=C(C)/C=C/C1=C(C)C[C@@H](O)CC1(C)C [lutein]
solubility in corn oil compared with the other oils ([5]; Example 3, corn mint, spearmint, peppermint, tea tree and bay oil, 3 mg or 4 mg in 20 ml): less soluble in corn oil than in the other oils | solubility when heated in white thyme oil ([5]; Example 5, 25% w/v, Spectrum white thyme oil): good solubility | time for which lutein was stable (carotenoid content) ([6]; in thyme oil): about 6.5 hours | reduction in age-related macular degeneration [3]: 57%

CC(C)=CCC/C(C)=C/C=C/C(C)=C/C=C/C(C)=C/C=C/C=C(C)/C=C/C=C(C)/C=C/C=C(\C)CCC=C(C)C [lycopene]
oxygen quenching [7]: best carotenoid oxygen quencher | reducing the risk of prostate cancer (prostate cancer): active in reducing the risk of prostate cancer

cis-lutein [cis-isomers of lutein]
stability of the cis-isomer formed ([1]; propylene glycol reflux (75° C.), content decreased after four hours): not stable | solubility compared with trans-isomers [8]: higher than trans-isomers | ultraviolet light (UV) absorption compared with trans-isomer lutein [9]: higher | stability upon reflux in ethanol ([2]; reflux in ethanol): easily reverted to the more thermodynamically stable trans-isomers
